Assay results as given in patent EP0501870A1, “New pharmaceutical compositions, particularly for the treatment of functional infections of the large intestines, and process for obtaining them” (SOCIETE CIVILE BIOPROJET, priority 1991, dated 1992).
pIC50: −log10 of the molar value.

Columns and labels:
[1] = Multicentre clinical study in functional colopathy patients; format: in vivo
Source text: Une étude multicentrique chez 420 colopathes fonctionnels a été entreprise avec l'acétorphan [R,S], produit pour lequel les études de toxicité chronique chez l'animal rongeur (rat) et non rongeur (singe) autorisaient des études de longue durée (supérieure à 1 mois). […]
Le critère principal d'efficacité retenu était la douleur évaluée selon une échelle analogique. Les autres paramètres pris en considération étaient les troubles du transit, qu'il s'agisse de constipation (54,4 % des cas) ou de diarrhée (39 % des cas).

[2] = molecular target: enképhalinase (Homo sapiens, UniProt P08473); details: compared with isomère [S], cited from earlier work
Chain of enképhalinase (Homo sapiens, UniProt P08473) (P08473 whole entry, species assumed): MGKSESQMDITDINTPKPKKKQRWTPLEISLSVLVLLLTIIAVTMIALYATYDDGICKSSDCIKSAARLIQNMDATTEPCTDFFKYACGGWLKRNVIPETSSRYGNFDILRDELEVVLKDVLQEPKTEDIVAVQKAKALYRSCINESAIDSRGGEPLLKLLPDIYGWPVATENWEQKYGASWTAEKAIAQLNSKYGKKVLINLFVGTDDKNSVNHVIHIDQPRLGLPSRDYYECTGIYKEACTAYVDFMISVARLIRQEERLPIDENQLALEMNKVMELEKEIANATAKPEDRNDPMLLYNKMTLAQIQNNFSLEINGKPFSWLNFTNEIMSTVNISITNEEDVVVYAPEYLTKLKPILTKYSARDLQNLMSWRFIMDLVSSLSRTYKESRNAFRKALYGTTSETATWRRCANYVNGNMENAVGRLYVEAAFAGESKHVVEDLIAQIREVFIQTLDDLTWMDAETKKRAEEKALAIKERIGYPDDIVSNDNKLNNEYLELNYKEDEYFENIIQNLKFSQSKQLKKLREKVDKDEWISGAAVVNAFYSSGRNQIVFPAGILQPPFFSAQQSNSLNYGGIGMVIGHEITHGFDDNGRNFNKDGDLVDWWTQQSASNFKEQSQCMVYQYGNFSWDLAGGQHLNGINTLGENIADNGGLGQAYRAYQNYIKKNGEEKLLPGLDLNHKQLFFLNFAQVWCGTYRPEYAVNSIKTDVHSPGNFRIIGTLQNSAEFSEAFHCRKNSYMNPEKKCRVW

[3] = molecular target: T1, enképhalinase plasmatique (Homo sapiens, UniProt P08473); test: Plasma enkephalinase activity over time after a single oral dose; format: in vivo, volontaire sain; details: healthy volunteer; for Activité enképhalinase plasmatique T3O' / Activité enképhalinase plasmatique T1h / Activité enképhalinase plasmatique T8h / Activité enképhalinase plasmatique TO: 30 mg oral single dose; for Activité enképhalinase plasmatique T3O': 30 min; for Activité enképhalinase plasmatique T3O' / Activité enképhalinase plasmatique T1h / Activité enképhalinase plasmatique T8h: * p < 0.05 vs TO; for Activité enképhalinase plasmatique T1h: 1 h; for Activité enképhalinase plasmatique T8h: 8 h; for Activité enképhalinase plasmatique TO: time zero (baseline)
T1 construct: from tissue; host or cells: plasma of healthy volunteers
T1 sequence (P08473 whole entry): as the sequence (P08473 whole entry, species assumed) above
Experimental: Chez le volontaire sain, l'activité enzymatique plasmatique a été évaluée en fonction du temps pour suivre l'absorption et la durée de vie des inhibiteurs étudiés, après administration orale d'un dose unique de 30 mg.
Comparaison des inhibitions enképhalinasiques plasmatiques après administration des différents composés à la dose de 30 mg par voie orale.

[4] = molecular target: enképhalinase; details: type of constant (IC50/Ki) not given; read-out: activité inhibitrice de l'enképhalinase; cited from earlier work
Chain of enképhalinase (P08473 whole entry, species assumed): as above

[5] = molecular target: A.C.E. (Homo sapiens, UniProt P12821); details: cited from earlier work
Chain of A.C.E. (P12821 30-1306, species assumed): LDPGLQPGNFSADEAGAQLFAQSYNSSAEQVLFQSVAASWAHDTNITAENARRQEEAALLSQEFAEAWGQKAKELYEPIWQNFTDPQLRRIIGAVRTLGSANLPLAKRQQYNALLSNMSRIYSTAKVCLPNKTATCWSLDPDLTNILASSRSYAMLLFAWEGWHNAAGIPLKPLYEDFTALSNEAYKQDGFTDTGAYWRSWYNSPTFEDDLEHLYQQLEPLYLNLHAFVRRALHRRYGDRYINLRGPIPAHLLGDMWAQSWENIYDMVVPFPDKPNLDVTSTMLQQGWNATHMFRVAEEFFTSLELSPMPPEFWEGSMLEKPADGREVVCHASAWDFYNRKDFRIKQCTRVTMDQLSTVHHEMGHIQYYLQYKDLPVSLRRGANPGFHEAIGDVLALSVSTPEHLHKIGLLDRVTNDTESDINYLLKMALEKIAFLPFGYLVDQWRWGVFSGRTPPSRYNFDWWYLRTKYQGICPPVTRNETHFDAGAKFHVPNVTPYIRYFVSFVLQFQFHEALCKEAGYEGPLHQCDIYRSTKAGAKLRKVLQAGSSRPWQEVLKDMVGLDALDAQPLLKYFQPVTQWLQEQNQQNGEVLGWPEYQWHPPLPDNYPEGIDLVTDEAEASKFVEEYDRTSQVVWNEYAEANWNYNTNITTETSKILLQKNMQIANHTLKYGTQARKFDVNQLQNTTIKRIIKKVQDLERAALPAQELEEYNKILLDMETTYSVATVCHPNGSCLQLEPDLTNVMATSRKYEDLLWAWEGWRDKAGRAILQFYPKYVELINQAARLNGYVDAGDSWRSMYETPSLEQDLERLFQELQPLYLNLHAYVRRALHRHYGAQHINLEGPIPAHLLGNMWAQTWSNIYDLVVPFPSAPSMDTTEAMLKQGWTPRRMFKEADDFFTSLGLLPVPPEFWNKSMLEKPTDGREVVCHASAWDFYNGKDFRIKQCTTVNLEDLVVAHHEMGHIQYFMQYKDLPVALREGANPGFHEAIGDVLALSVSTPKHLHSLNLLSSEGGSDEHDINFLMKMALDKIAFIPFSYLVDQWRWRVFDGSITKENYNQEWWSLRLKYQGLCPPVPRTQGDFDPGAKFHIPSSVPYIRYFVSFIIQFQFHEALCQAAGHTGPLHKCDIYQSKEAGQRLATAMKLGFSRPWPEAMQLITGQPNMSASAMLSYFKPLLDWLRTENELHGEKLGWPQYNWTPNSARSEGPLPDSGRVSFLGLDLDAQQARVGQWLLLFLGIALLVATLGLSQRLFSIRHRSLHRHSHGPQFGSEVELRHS

[6] = tested on: motricité colique; test: Post-prandial colonic motor activity recorded by strain gauges; format: in vivo, chien; details: dog, mean and sd of 8 values
Source text: Chez le chien, en période post-prandiale, le mélange des deux isomères [R] 65 % [S]

[7] = clinical trials in man; cited from earlier work
[8] = plasma enkephalinase inhibition, 30 mg oral

CC(=O)SCC(Cc1ccccc1)C(=O)NCC(=O)OCc1ccccc1 (racemic) [acétorphan]
% d'amélioration après acétorphan 100 mg X 3, Ballonnement ([1]; 1 mois (420 sujets)): 60% | % d'amélioration après acétorphan 100 mg X 3, Douleur ([1]; 1 mois (420 sujets)): 70% | % d'amélioration après acétorphan 100 mg X 3, Troubles du transit ([1]; 1 mois (420 sujets)): 50% | % d'amélioration après acétorphan 100 mg X 3, Ballonnement ([1]; 2 mois (115 sujets)): 80% | % d'amélioration après acétorphan 100 mg X 3, Douleur ([1]; 2 mois (115 sujets)): 84,3% | % d'amélioration après acétorphan 100 mg X 3, Troubles du transit ([1]; 2 mois (115 sujets)): 81,5% | % d'amélioration après acétorphan 100 mg X 3, Ballonnement ([1]; 3 mois (40 sujets)): 90% | % d'amélioration après acétorphan 100 mg X 3, Douleur ([1]; 3 mois (40 sujets)): 87,5% | % d'amélioration après acétorphan 100 mg X 3, Troubles du transit ([1]; 3 mois (40 sujets)): 94% | sujets constipés au stade 3 ([1]; after one month of treatment): 0,9% | sujets diarrhéiques présentant une diarrhée objective et importante (d'intensité 2 et 3) ([1]; after one month of treatment, 20 % before treatment): 2,4% | sujets constipés souffrant de constipation importante (stades 2 et 3) ([1]; after one month of treatment, 32 % before treatment): 12,7%

CC(=O)SC[C@H](Cc1ccccc1)C(=O)NCC(=O)OCc1ccccc1 [[R], [R] acétorphan]
durée d'action vis-à-vis de l'enképhalinase [2]: environ trois fois moins longue que celle de l'isomère [S] | effet maximal ([2]; enkephalinase inhibition): moins intense | Activité enképhalinase plasmatique T3O' [3]: 40,0 pmol/ml/min | Activité enképhalinase plasmatique T1h [3]: 32,4* pmol/ml/min | Activité enképhalinase plasmatique T8h [3]: 46,1 pmol/ml/min | Activité enképhalinase plasmatique TO [3]: 52,3 pmol/ml/min | durée d'action [3, 8]: plus courte que le dérivé [S] et le mélange [R] + [S] | effet maximum [Cmax] [3, 8]: plus faible | pIC50 [4]: 8.77 | activité inhibitrice de l'A.C.E. [5]: dénué d'effet sur l'A.C.E. | Index moteur (évalué par jauge de contrainte) Avant repas (-2-0 h) ([6]; 10 mg/kg per os): 5.7 ± 0.8 | Index moteur (évalué par jauge de contrainte) Après repas (2 - 10 h) ([6]; 10 mg/kg per os, * p < 0.01 vs control): 15.2 ± 2.4

CC(=O)SC[C@@H](Cc1ccccc1)C(=O)NCC(=O)OCc1ccccc1 [[S], [S] acétorphan]
Activité enképhalinase plasmatique T3O' [3]: 28,4* pmol/ml/min | Activité enképhalinase plasmatique T1h [3]: 21,7* pmol/ml/min | Activité enképhalinase plasmatique T8h [3]: 37* pmol/ml/min | Activité enképhalinase plasmatique TO [3]: 53,3 pmol/ml/min | pIC50 [4]: 8.66 | activité inhibitrice de l'A.C.E. [5]: résidant essentiellement dans l'isomère [S] | effet antihypertenseur [7]: effet antihypertenseur, démontré chez l'homme | Index moteur (évalué par jauge de contrainte) Avant repas (-2-0 h) ([6]; 5 mg/kg per os): 6.3 ± 1
